Measurements reported in patent publication US20200187502A1, “MICROBIOCIDAL OXADIAZOLE DERIVATIVES” (SYNGENTA PARTICIPATIONS AG, priority 2017, published 2020).

Key:
[1] = tested on: Puccinia recondita f. Sp. Tritici; test: Fungicidal activity, wheat leaf disc curative (brown rust); assay type: in vivo; conditions: foliar, 200 ppm in the applied formulation, wheat leaf segments cv. Kanzler, curative (applied 1 day after inoculation), compared to untreated control, 6 to 8 days after application, read-out: disease control
How it was run: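 Wheat cv. Kanzler leaf segments on agar were inoculated with fungal spore suspension, held dark at 19° C and 75% RH, then sprayed 1 day later with formulated compound diluted in water. Incubation continued at 19° C, 75% RH, 12 h light/12 h dark; percent disease control versus untreated was scored 6 to 8 days after application.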

[2] = tested on: Glomerella lacenarium (Colletotrichum lacenarium); test: Fungicidal activity, liquid culture, cucumber preventative (anthracnose); assay type: cell-based; conditions: 20 ppm in the applied formulation, liquid culture in PDB, inhibition of growth measured photometrically 3 to 4 days after application, compared to untreated control, read-out: disease control
How it was run: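 Conidia from cryogenic storage were mixed into potato dextrose broth and added to DMSO solutions of test compound in microtiter plates. Plates were incubated at 24° C. and growth inhibition read photometrically 3 to 4 days after application, as percent antifungal activity versus untreated check.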

Phakopsora pachyrhizi = test: Fungicidal activity, soybean leaf disc preventative (Asian soybean rust); assay type: in vivo; conditions: foliar, 200 ppm in the applied formulation, soybean leaf disks, compared to untreated control, 12 to 14 days after application, read-out: disease control
How it was run: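 Read-out is percent disease control relative to untreated check discs, assessed once untreated discs show adequate disease, 12 to 14 days after application. Compounds, tested at 200 ppm in the applied formulation, are sprayed onto soybean leaf discs one day before inoculation with a spore suspension.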

[3] = tested on: Puccinia recondita f. Sp. Tritici; test: Fungicidal activity, wheat leaf disc preventative (brown rust); assay type: in vivo; conditions: foliar, 200 ppm in the applied formulation, wheat leaf segments cv. Kanzler, compared to untreated control, 7 to 9 days after application, read-out: disease control
How it was run: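 Wheat cv. Kanzler leaf segments on agar were sprayed with formulated compound in water, then inoculated with spores 1 day later. Incubated at 19° C, 75% rh, 12 h light/12 h dark; percent disease control versus untreated scored 7 to 9 days after application.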

Structure (SMILES) | pest or weed control at 200 ppm [1] [%] | inhibition of growth at 20 ppm [2] [%] | pest or weed control at 200 ppm (Phakopsora pachyrhizi) [%] | melting point [°C] | pest or weed control at 200 ppm [3] [%]
CNC(=O)N(Cc1ccc(-c2noc(C(F)(F)F)n2)s1)OC [Compound 1.2, 1-methoxy-3-methyl-1-[[5-[5-(trifluoromethyl)-1,2,4-oxadiazol-3-yl]-2-thienyl]methyl]urea] | ≥ 80 | ≥ 80 | ≥ 80 | 93.2 to 95.7 | ≥ 80
O=C(NCc1ccc(-c2noc(C(F)(F)F)n2)s1)c1ccccc1Cl [Compound 3.9, 2-chloro-N-[[5-[5-(trifluoromethyl)-1,2,4-oxadiazol-3-yl]-2-thienyl]methyl]benzamide] | ≥ 80 | ≥ 80 | ≥ 80 |  | ≥ 80
CCNC(=O)N(Cc1ccc(-c2noc(C(F)(F)F)n2)s1)C(C)C [Compound 4.83, 3-ethyl-1-isopropyl-1-[[5-[5-(trifluoromethyl)-1,2,4-oxadiazol-3-yl]-2-thienyl]methyl]urea] | ≥ 80 | ≥ 80 | ≥ 80 |  | ≥ 80
CON(Cc1ccc(-c2noc(C(F)(F)F)n2)s1)C(C)=O [Compound 1.25, N-methoxy-N-[[5-[5-(trifluoromethyl)-1,2,4-oxadiazol-3-yl]-2-thienyl]methyl]acetamide] | ≥ 80 | ≥ 80 | ≥ 80 |  | ≥ 80
C#CCNC(=O)N(Cc1ccc(-c2noc(C(F)(F)F)n2)s1)C(C)C [Compound 4.85, 1-isopropyl-3-prop-2-ynyl-1-[[5-[5-(trifluoromethyl)-1,2,4-oxadiazol-3-yl]-2-thienyl]methyl]urea] | ≥ 80 | ≥ 80 | ≥ 80 |  | ≥ 80
CCNC(=O)N(C)Cc1ccc(-c2noc(C(F)(F)F)n2)s1 [Compound 4.16, 3-ethyl-1-methyl-1-[[5-[5-(trifluoromethyl)-1,2,4-oxadiazol-3-yl]-2-thienyl]methyl]urea] | ≥ 80 | ≥ 80 | ≥ 80 |  | ≥ 80
CC(C)C(=O)NCc1ccc(-c2noc(C(F)(F)F)n2)s1 [Compound 2.9, 2-methyl-N-[[5-[5-(trifluoromethyl)-1,2,4-oxadiazol-3-yl]-2-thienyl]methyl]propanamide] | ≥ 80 | ≥ 80 | ≥ 80 |  | ≥ 80
O=C(CC1CC1)NCc1ccc(-c2noc(C(F)(F)F)n2)s1 [Compound 3.10, 2-cyclopropyl-N-[[5-[5-(trifluoromethyl)-1,2,4-oxadiazol-3-yl]-2-thienyl]methyl]acetamide] | ≥ 80 | ≥ 80 | ≥ 80 |  | ≥ 80
CON(Cc1ccc(-c2noc(C(F)(F)F)n2)s1)C(=O)CNC(C)=O [Compound 1.7, 2-acetamido-N-methoxy-N-[[5-[5-(trifluoromethyl)-1,2,4-oxadiazol-3-yl]-2-thienyl]methyl]acetamide] | ≥ 80 | ≥ 80 | ≥ 80 |  | ≥ 80
CCC(=O)N(CC)Cc1ccc(-c2noc(C(F)(F)F)n2)s1 [Compound 4.26, N-ethyl-N-[[5-[5-(trifluoromethyl)-1,2,4-oxadiazol-3-yl]-2-thienyl]methyl]propanamide] | ≥ 80 | ≥ 80 | ≥ 80 |  | ≥ 80
CC1(C(=O)NCc2ccc(-c3noc(C(F)(F)F)n3)s2)CC1 [Compound 3.6, 1-methyl-N-[[5-[5-(trifluoromethyl)-1,2,4-oxadiazol-3-yl]-2-thienyl]methyl]cyclopropanecarboxamide] | ≥ 80 | ≥ 80 | ≥ 80 |  | ≥ 80
CC(=O)NCC(=O)N(C)Cc1ccc(-c2noc(C(F)(F)F)n2)s1 [Compound 4.33, 2-acetamido-N-methyl-N-[[5-[5-(trifluoromethyl)-1,2,4-oxadiazol-3-yl]-2-thienyl]methyl]acetamide] | ≥ 80 | ≥ 80 | ≥ 80 |  | ≥ 80
CC(C)C(=O)N(C)Cc1ccc(-c2noc(C(F)(F)F)n2)s1 [Compound 4.10, N,2-dimethyl-N-[[5-[5-(trifluoromethyl)-1,2,4-oxadiazol-3-yl]-2-thienyl]methyl]propanamide] | ≥ 80 | ≥ 80 | ≥ 80 |  | ≥ 80
CON(Cc1ccc(-c2noc(C(F)(F)F)n2)s1)C(=O)NC1CC1 [Compound 1.27, 3-cyclopropyl-1-methoxy-1-[[5-[5-(trifluoromethyl)-1,2,4-oxadiazol-3-yl]-2-thienyl]methyl]urea] | ≥ 80 | ≥ 80 | ≥ 80 | 82.2 to 83.8 | ≥ 80
C#CCNC(=O)N(Cc1ccc(-c2noc(C(F)(F)F)n2)s1)C1CC1 [Compound 4.92, 1-cyclopropyl-3-prop-2-ynyl-1-[[5-[5-(trifluoromethyl)-1,2,4-oxadiazol-3-yl]-2-thienyl]methyl]urea] | ≥ 80 | ≥ 80 | ≥ 80 |  | ≥ 80
COCCCC(=O)N(Cc1ccc(-c2noc(C(F)(F)F)n2)s1)C1CC1 [Compound 4.58, N-cyclopropyl-4-methoxy-N-[[5-[5-(trifluoromethyl)-1,2,4-oxadiazol-3-yl]-2-thienyl]methyl]butanamide] | ≥ 80 | ≥ 80 | ≥ 80 |  | ≥ 80
C=CCN(C)C(=O)N(C)Cc1ccc(-c2noc(C(F)(F)F)n2)s1 [Compound 4.77, 1-allyl-1,3-dimethyl-3-[[5-(5-(trifluoromethyl)-1,2,4-oxadiazol-3-yl]-2-thienyl]methyl]urea] | ≥ 80 | ≥ 80 | ≥ 80 |  | ≥ 80
